This data set in a line: Log D7.4 measurement (1-octanol/PBS buffer). The data set is classed as physicochemical. The note with it: pH 7.4, n=3. As for the experimental part:
Partition coefficient was measured by mixing the [^18F]FS1P1 sample with 3 mL each of 1-octanol and buffer that is 0.1 M phosphate and pH equals 7.4 in a test tube. The mixture in the test tube was vortexed for 20 sec followed by centrifugation for 1 min at room temperature. Then 2 mL of the organic layer was transferred to a second test tube, and 1 mL of 1-octanol and 3 mL of PBS buffer were added. The resulting mixture was vortexed for 20 sec, followed by centrifugation for 1 min at room temperature. Then 1 mL of the organic and aqueous layer were taken separately for measurement. The radioactivity content values (count per minute) of two samples (1 mL each) from the 1-octanol and buffer layers were counted using a gamma counter. The partition coefficient Log D7.4 was determined by calculating as the decimal logarithm the ratio of cpm/mL between 1-octanol and PBS buffer. The measurements were repeated three times. The value of the partition coefficient is 2.62±0.31.

With `Cc1ccccc1-c1ccc(-c2nc(-c3ccc(CN(C)CCC(=O)O)c([18F])c3)no2)cc1C(F)(F)F` [[^18F]FS1P1], the “Log D7.4” value was 2.62±0.31 and the logD came to 2.62 ± 0.31.

A word on the logD: it is lipophilicity at a set pH, counting ionised and neutral species.

The values are drawn from patent US20240228448A1 (Washington University, priority 2021, published 2024).
